Measurements published in patent publication US11471414B2, “Compositions and methods for the treatment and prophylaxis of surgical site infections” (Polypid Ltd., priority 2014, dated 2022).

Test system: Staphylococcus aureus (ATCC 29213) preformed biofilm
Experiment: MBEC Physiology and Genetics Assay, eradication of an established biofilm
Assay type: cell-based
Experimental: The effectiveness of tri-calcium phosphate granules coated with a matrix composition according to embodiments of the invention in eradicating established biofilm was measured using the MBEC™ (Minimum Biofilm Eradication Concentration) Physiology and Genetics Assay.
MBEC™ Test Method Overview: MBEC™ test method specifies the operational parameters required to grow and treat different bacterial biofilms in a high throughput screening assay. The assay device consists of a plastic lid with ninety-six (96) pegs and a corresponding receiver plate with ninety-six (96) individual wells that have a maximum 200 μL working volume. Biofilm is established on the pegs in a batch culture based model (i.e., no flow of nutrients into or out of an individual well) with gentle mixing. The established biofilm is transferred to a new receiver plate for disinfectant efficacy testing.
Test Organisms: Staphylococcus aureus (an osteomyelitis-related strains); source: ATCC
29213; Dilution/Challenge Media: 1,000×TSB+10% human serum 24 hrs; Growth Media/agar: Tryptic Soy Broth/Tryptic Soy agar for 24 hrs Aerobic cond.
TEST METHOD overview: The experimental process for high-throughput antimicrobial susceptibility testing using the hydroxyapatite coated MBEC™ P&G assay. This standard protocol was broken into a series of small steps, each of which is detailed in the sections below.
Using a cryogenic stock (at −70° C.), a first sub-culture of Staphylococcus aureus was streaked out on OSA (organism specific agar). The plates were incubated at appropriate growth conditions for 20±2.0 hours and further stored at 4° C.
A second sub-culture taken from the first sub-culture was streaked out on OSA. The plates were incubated at appropriate growth conditions for 20±2.0 hours. An isolated colony from the second sub-culture was aseptically removed from the OSA plate and inoculated into 50 mL of sterile bacterial liquid growth broth, followed by incubation appropriate growth conditions for 20±2.0 hours (at 150 rpm).
The inoculum was adjusted to an approximate cell density of 10^6 CFU/mL.
150 μL of the remaining diluted organism were placed in each of the corresponding wells of an MBEC™ P&G device except the sterility controls (Table 5). The device was placed on an orbital shaker (110 RPM) in a humidified incubator at 37±1° C.
The biofilm formed on the lid of the MBEC device was rinsed by dipping the lid into saline (˜30 seconds) to remove planktonic cells. The lid was then put on top of the challenge plate and incubated on a rotary shaker at 110 rpm at 35±2° C. for 24±2 hours.
After incubation (specified above), planktonic cells were rinsed off the biofilm by dipping the lid into saline (˜20-30 seconds). The lid was then transferred to a neutralizer/recovery plate and put in a sonicator (˜30 minutes) to dislodge surviving biofilm.
Following sonication, 100 μL from each well of the MBEC™ plate, were put into the first 12 empty wells of the first row of a 96 well-micro titer plate and were further diluted by 10 fold down each of the 8 rows (10^0-10^7 dilution). 5 μL from each well were then used for spotting prepared OSA plates. The agar plates were incubated at 37±1° C. and counted after approximately 24-48 hours of incubation. The arithmetic mean of the number of colonies counted on the plates was calculated.
100 μL of the sterile neutralizer was added to each well of the recovery plate to top up the volume back to 200 μL. The refilled plate is incubated at 35±2° C. for 24±2 hours.
Comparator MBEC results were determined following the 24±2 hour incubation using the plate reader.
The log density for one peg was calculated as follows: LOG10(CFU/peg)=LOG10[(X/B)(D)] where: X=mean CFU; B=volume plated (0.02 mL) and D=dilution.
The overall biofilm accumulation was determined by calculating the mean of the log densities calculated.
LOG10 reduction for each dilution was calculated as follows: LOG10 Reduction=Mean LOG10 Growth Control−Mean LOG10 Test Sample.

**Q.** What does the source list for Gentamicin?
**A.** Log Reduction (Log R) vs. GC (growth control) (D 0.5): 1.11; Average Log10 CFU/peg recoveries (D 0.5 (μg)): 3.48 Log10 CFU/peg; Log Reduction (Log R) vs. GC (growth control) (D 1.0): 1.38; Average Log10 CFU/peg recoveries (D 1.0 (μg)): 3.21 Log10 CFU/peg; Log Reduction (Log R) vs. GC (growth control) (D 2.0): 2.90; Average Log10 CFU/peg recoveries (D 2.0 (μg)): 1.69 Log10 CFU/peg; Log Reduction (Log R) vs. GC (growth control) (D 4.0): 3.29; Average Log10 CFU/peg recoveries (D 4.0 (μg)): 1.31 Log10 CFU/peg; Log Reduction (Log R) vs. GC (growth control) (D 8.0): 4.59; Average Log10 CFU/peg recoveries (D 8.0 (μg)): 0.00 Log10 CFU/peg; Log Reduction (Log R) vs. GC (growth control) (D 16): 4.59; Average Log10 CFU/peg recoveries (D 16 (μg)): 0.00 Log10 CFU/peg; Log Reduction (Log R) vs. GC (growth control) (D 32): 4.59; Average Log10 CFU/peg recoveries (D 32 (μg)): 0.00 Log10 CFU/peg
